The source of these data is US9120761B2, “Selective FAK inhibitors” (priority 2011, dated 2015).

The subject of assay [1] is taxane-sensitive (SKOV3ip1 and HeyA8) and taxane-resistant (HeyA8-MDR) ovarian cancer cell lines. Particulars: cited from earlier work.
Assay [2] deals with HeyA8, SKOV3ip1, and HeyA8-MDR models. The following applies: cited from earlier work.
The next assay addresses FAK (Homo sapiens (Human), UniProt Q05397). The following applies: in vitro; cited from earlier work.
The subject of the next assay is MDA-231-LNA cells. As to the kind of experiment: 2D cellular proliferation assay. In kind it is cell-based. The following applies: 72 h, 3 days incubation, resazurin.
For assay [3], the target named is VEGFR3 cytoplasmic domain (Homo sapiens, UniProt P35916). As to the kind of experiment: VEGFR3 biochemical assay (Alpha Screen). Particulars: N-terminal GST-fusion protein (amino acids 798-1298), 500 μM ATP.
Assay [4] addresses N-terminally GST-fused purified FAK enzyme (Homo sapiens (Human), UniProt Q05397). As to the kind of experiment: FAK Biacore SPR assay. It is filed as binding. Background: Surface plasmon resonance follows binding to a sensor surface in real time, without labels.
Description: Binding parameters of compounds were determined using a Biacore™ S51 sensor. An anti-GST antibody was immobilized onto a CM5 chip by primary amine-coupling in accordance with the manufacturer's recommendations.
Concentration series' of the test compounds were injected over the spots at 25° C.
After the injection cycle of a compound the chip surface was regenerated with 10 mM glycine-HCl, pH2.2 before capturing the enzyme again.
Assay [5] deals with FAK enzyme (catalytic domain, amino acids 411-686) (Homo sapiens (Human), UniProt Q05397). Put plainly: FAK biochemical Alpha Screen assay. Particulars: 80 μM ATP.
Assay [6] addresses VEGFR3 cytoplasmic domain (Homo sapiens, UniProt P35916, DEL949-1002). As to the kind of experiment: VEGFR3 biochemical assay (Alpha Screen). Particulars: modified form (*): N-terminal Hexa-His-fusion protein, amino acids 818-1177 lacking 949-1002.
A further assay relates to MDA-231-LNA tumours. As to the kind of experiment: Combination study efficacy and tolerability with dasatinib, IMFP MDA-231-LNA tumours. It is filed as in vivo. Particulars: Compound 3 40 mg/kg p.o. BID, dasatinib 30 mg/kg p.o. BID; Balb/c SCID mice, MDA-231-LNA primary tumour.

Where two headings read alike, the source gives them in different places.

Sequence of VEGFR3 cytoplasmic domain (Homo sapiens, UniProt P35916) (P35916 25-1363 limits assumed): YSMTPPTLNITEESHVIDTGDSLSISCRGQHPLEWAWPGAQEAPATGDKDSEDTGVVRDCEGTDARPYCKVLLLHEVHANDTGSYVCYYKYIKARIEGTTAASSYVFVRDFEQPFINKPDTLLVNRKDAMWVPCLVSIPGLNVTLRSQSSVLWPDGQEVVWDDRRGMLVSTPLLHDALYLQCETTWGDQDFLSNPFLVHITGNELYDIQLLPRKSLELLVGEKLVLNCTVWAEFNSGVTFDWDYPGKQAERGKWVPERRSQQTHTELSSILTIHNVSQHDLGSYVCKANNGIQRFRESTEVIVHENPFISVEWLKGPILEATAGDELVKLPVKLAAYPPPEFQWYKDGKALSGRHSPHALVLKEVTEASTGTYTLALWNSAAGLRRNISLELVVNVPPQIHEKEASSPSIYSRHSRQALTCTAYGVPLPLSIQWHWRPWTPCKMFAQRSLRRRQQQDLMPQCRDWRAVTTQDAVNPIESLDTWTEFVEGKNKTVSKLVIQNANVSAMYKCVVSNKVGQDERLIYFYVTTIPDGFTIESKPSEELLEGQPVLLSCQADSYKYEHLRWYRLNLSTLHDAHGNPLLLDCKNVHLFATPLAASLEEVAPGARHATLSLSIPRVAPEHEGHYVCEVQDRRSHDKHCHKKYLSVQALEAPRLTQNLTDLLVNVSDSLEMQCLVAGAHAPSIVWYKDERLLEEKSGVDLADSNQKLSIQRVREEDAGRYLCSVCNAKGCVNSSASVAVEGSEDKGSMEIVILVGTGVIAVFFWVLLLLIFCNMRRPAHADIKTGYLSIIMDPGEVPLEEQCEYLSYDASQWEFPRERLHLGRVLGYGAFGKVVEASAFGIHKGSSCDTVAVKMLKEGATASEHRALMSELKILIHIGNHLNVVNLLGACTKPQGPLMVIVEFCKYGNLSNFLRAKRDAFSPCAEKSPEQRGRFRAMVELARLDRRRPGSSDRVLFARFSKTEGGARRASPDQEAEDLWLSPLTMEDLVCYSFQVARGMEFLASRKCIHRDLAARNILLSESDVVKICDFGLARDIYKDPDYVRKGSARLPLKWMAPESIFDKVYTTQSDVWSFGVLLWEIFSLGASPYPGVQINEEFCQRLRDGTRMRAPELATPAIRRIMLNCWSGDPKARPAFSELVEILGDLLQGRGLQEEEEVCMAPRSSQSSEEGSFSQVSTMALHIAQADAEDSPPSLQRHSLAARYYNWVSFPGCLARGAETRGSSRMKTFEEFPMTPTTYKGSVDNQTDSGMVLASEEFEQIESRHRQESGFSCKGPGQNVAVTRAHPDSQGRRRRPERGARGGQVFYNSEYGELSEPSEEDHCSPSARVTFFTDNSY
Sequence of N-terminally GST-fused purified FAK enzyme (Q05397 whole entry, the tested form may be a part): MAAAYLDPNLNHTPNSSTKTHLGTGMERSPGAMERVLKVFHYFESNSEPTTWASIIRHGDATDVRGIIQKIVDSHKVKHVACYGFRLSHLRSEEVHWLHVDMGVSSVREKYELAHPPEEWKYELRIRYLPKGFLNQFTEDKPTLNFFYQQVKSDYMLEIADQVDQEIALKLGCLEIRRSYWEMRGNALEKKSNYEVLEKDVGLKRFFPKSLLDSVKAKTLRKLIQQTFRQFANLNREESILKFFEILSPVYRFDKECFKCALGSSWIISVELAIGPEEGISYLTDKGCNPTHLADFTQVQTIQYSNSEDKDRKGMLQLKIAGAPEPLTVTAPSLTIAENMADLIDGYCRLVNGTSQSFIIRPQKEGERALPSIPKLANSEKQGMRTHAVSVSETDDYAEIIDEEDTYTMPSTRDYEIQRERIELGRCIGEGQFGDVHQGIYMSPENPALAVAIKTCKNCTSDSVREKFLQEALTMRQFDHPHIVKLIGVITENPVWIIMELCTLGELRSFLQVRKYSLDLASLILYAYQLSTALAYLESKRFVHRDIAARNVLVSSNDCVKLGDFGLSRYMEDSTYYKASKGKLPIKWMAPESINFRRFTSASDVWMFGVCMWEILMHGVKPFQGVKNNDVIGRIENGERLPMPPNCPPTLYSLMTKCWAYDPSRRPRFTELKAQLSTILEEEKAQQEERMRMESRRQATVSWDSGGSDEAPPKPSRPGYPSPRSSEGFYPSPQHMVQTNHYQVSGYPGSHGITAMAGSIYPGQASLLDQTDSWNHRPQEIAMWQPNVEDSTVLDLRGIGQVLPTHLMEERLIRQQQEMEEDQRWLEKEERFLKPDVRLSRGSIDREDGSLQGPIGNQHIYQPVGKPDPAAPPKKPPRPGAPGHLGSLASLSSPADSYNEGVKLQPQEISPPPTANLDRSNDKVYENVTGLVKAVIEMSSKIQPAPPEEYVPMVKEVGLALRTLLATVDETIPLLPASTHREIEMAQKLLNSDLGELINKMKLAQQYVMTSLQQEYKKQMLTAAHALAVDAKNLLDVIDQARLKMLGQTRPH
Sequence of FAK enzyme (catalytic domain, amino acids 411-686) (Q05397 411-686): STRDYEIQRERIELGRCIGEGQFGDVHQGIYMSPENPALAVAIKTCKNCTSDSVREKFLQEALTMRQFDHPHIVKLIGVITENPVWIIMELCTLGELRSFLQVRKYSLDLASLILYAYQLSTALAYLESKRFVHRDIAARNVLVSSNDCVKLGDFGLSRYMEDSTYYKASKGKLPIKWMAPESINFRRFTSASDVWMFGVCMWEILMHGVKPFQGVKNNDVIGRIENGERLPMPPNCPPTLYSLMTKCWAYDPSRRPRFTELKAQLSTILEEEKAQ
Sequence of VEGFR3 cytoplasmic domain (Homo sapiens, UniProt P35916, DEL949-1002) (P35916 with tags, fused parts or gaps DEL949-1002 limits assumed): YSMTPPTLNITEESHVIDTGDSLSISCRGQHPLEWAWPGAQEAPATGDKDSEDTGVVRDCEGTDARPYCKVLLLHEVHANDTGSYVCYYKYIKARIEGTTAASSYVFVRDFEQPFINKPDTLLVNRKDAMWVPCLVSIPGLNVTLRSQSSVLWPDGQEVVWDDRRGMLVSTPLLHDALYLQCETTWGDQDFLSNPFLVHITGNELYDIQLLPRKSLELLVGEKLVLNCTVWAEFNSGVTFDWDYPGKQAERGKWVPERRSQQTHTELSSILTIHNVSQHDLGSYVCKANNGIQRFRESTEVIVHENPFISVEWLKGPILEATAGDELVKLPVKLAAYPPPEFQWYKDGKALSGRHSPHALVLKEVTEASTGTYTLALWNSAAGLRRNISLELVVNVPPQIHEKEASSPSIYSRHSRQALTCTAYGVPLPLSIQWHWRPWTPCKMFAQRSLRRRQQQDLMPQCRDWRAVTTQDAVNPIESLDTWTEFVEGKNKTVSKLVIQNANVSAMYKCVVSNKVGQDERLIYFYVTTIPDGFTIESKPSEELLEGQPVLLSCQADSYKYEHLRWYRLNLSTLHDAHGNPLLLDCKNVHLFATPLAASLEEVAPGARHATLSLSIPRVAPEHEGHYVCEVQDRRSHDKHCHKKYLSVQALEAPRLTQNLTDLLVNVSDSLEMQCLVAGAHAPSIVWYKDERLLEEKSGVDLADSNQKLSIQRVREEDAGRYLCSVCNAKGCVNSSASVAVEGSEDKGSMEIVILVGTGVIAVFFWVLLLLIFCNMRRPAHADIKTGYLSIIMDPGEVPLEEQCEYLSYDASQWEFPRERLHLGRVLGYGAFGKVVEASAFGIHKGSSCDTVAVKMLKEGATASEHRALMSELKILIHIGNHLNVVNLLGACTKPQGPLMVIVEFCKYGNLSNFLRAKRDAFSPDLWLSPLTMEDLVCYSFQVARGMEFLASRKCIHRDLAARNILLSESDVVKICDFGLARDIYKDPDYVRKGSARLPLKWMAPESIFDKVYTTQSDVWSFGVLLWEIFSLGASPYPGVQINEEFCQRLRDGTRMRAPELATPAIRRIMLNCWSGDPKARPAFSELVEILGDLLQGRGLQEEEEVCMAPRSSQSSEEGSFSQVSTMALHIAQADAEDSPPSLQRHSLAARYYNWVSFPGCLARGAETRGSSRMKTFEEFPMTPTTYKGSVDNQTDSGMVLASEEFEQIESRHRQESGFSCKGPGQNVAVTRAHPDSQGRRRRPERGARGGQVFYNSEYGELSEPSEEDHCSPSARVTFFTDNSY
Sequence of FAK (Q05397 whole entry): as the sequence (Q05397 whole entry, the tested form may be a part) above
Description for MDA-231-LNA tumours: Treatment commenced when tumours were palpable (day 9 post cell injection) and continued for the duration of the experiment. The formulations used were the same as those above, with the vehicle (I-IPMC-SV, 0.2 ml), being administered as a control.
As additional markers of potential hepatotoxicity, liver weight at harvest as well as alanine aminotransferase (ALT) and aspartate transaminase (AST) levels were determined in plasma 12 hours after the final dose of drug.

Take `CNC(=O)c1ccccc1Nc1nc(Nc2ccc(N3CCOCC3)cc2OC)ncc1Cl` [TAE226]: the cell growth entry in assay [1] (in vitro) is “inhibited cell growth in a time- and dose-dependent manner”. Moreover, the “enhancement of docetaxel-mediated growth inhibition” value in assay [1] (taxane-resistant cell lines) is recorded as 20 fold; in assay [1] (taxane-sensitive cell lines), 10 fold. Also, in assay [2], the “reduction of tumour burden compared with vehicle-treated controls” value is reported as 46-64%. Also, the “phosphorylation of FAK at Y397 and Y861 sites” value on FAK is on record as “inhibited”.
With `CCc1cc(C2CCN(C)CC2)ccc1Nc1ncc(C(F)(F)F)c(CCc2ccccc2CC(N)=O)n1` [Compound 9, 2-(2-(2-(2-((2-Ethyl-4-(1-methylpiperidin-4-yl)phenyl)amino)-5-(trifluoromethyl)pyrimidin-4-yl)ethyl)phenyl)acetamide], 2900 nM corresponded to half-maximal inhibition with MDA-231-LNA cells (IC50).
As for `CN1CCC(c2ccc(Nc3ncc(C(F)(F)F)c(CCc4ccccc4CC(N)=O)n3)c(OC(F)(F)F)c2)CC1` [Compound 11, 2-(2-(2-(2-((4-(1-Methylpiperidin-4-yl)-2-(trifluoromethoxy)phenyl)amino)-5-(trifluoromethyl)pyrimidin-4-yl)ethyl)phenyl)acetamide], the figures for the IC50 (in assay [3]; in the assay on MDA-231-LNA cells; in assay [5]) were 59800 nM, 2580 nM and 2.2 nM, respectively. Further, binding in assay [4] (Biacore S51, 25° C.) was put at a Kd of 1.7 nM.
For `COc1cc(C2CCN(C)CC2)ccc1Nc1ncc(C(F)(F)F)c(CCc2cccc(C(N)=O)c2)n1` [Compound 6, 3-(2-(2-((2-Methoxy-4-(1-methylpiperidin-4-yl)phenyl)amino)-5-(trifluoromethyl)pyrimidin-4-yl)ethyl)benzamide] the same measures were 10400 nM, 2240 nM, 2.1 nM and 2.9 nM.
As to `COc1cc(N2CCNCC2)ccc1Nc1ncc(C(F)(F)F)c(CCc2ccccc2CC(N)=O)n1` [Compound 1, 2-(2-(2-(2-((2-Methoxy-4-(piperazin-1-yl)phenyl)amino)-5-(trifluoromethyl)pyrimidin-4-yl)ethyl)phenyl)acetamide], the IC50 (usually the concentration needed to halve the response being measured) in assay [6] was found to be 275 nM; in the assay with MDA-231-LNA cells it was 1430 nM; in assay [5] it was 1.9 nM. The dissociation constant (Kd) (in general, the concentration at which binding is half-saturated) in assay [4] (Biacore S51, 25° C.) is 0.29 nM.
Take `CN1CCC(c2ccc(Nc3ncc(C(F)(F)F)c(CCc4ccccc4CC(N)=O)n3)c(F)c2)CC1` [Compound 13, 2-(2-(2-(2-((2-Fluoro-4-(1-methylpiperidin-4-yl)phenyl)amino)-5-(trifluoromethyl)pyrimidin-4-yl)ethyl)phenyl)acetamide]: the IC50 was determined as 205 nM in [3], 2760 nM in the assay on MDA-231-LNA cells and 5.6 nM in assay [5].
For the molecule `CCN1CCC(c2ccc(Nc3ncc(C(F)(F)F)c(CCc4ccccc4CC(N)=O)n3)c(OC)c2)CC1` [Compound 4, 2-(2-(2-(2-((4-(1-Ethylpiperidin-4-yl)-2-methoxyphenyl)amino)-5-(trifluoromethyl)pyrimidin-4-yl)ethyl)phenyl) acetamide], the IC50 in the assay with MDA-231-LNA cells was 1910 nM; in assay [5] it was 3.6 nM. Also, the Kd in [4] (Biacore S51, 25° C.) turned out to be 1.5 nM.
On to `CCc1cc(C2CCNCC2)ccc1Nc1ncc(C(F)(F)F)c(CCc2ccccc2CC(N)=O)n1` [Compound 8, 2-(2-(2-(2-((2-Ethyl-4-(piperidin-4-yl)phenyl)amino)-5-(trifluoromethyl)pyrimidin-4-yl)ethyl)phenyl)acetamide], for which the IC50 in [3] came out at 1180 nM; in the assay with MDA-231-LNA cells, 2480 nM.
Regarding `COc1cc(C2CCN(C)CC2)ccc1Nc1ncc(C(F)(F)F)c(CCc2ccccc2CC(N)=O)n1` [Compound 3, 2-(2-(2-(2-((2-Methoxy-4-(1-methylpiperidin-4-yl)phenyl)amino)-5-(trifluoromethyl)pyrimidin-4-yl)ethyl)phenyl)acetamide], the IC50 came out at 538 nM in assay [3], 6620 nM with MDA-231-LNA cells and 2.2 nM in assay [5]. Also, in the assay with MDA-231-LNA tumours, the “TGI based on tumour weight” value was 42%. In assay [4] (Biacore S51, measured using an extended washing step of 30 minutes), this molecule had a Kd of 0.21 nM.
In the case of `COc1cc(C2CCNCC2)ccc1Nc1ncc(C(F)(F)F)c(CCc2ccccc2CC(N)=O)n1` [Compound 2, 2-(2-(2-(2-((2-Methoxy-4-(piperidin-4-yl)phenyl)amino)-5-(trifluoromethyl)pyrimidin-4-yl)ethyl)phenyl)acetamide], the IC50 worked out at 3680 nM in assay [6], 2770 nM in the assay on MDA-231-LNA cells and 7.1 nM in assay [5]. In addition, binding in [4] (Biacore S51, 25° C.) was put at a Kd of 0.74 nM.
Turning to `CCN1CCC(c2ccc(Nc3ncc(C(F)(F)F)c(CCc4cccc(C(N)=O)c4)n3)c(OC)c2)CC1` [Compound 7], the IC50 in assay [6] was 13300 nM; with MDA-231-LNA cells it was 4930 nM; in [5], 9.4 nM.
For `NC(=O)Cc1ccccc1CCc1nc(Nc2ccc(C3CCNCC3)cc2OC(F)(F)F)ncc1C(F)(F)F` [Compound 10, 2-(2-(2-(2-((4-(Piperidin-4-yl)-2-(trifluoromethoxy)phenyl)amino)-5-(trifluoromethyl)pyrimidin-4-yl)ethyl)phenyl)acetamide], the figures for the IC50 (in assay [3]; in the assay with MDA-231-LNA cells; in assay [5]) were above 66000 nM, 1690 nM and 2.7 nM, respectively. Also, the Kd in assay [4] (Biacore S51, 25° C.) was 0.79 nM.
Regarding `COc1cc(C2CCNCC2)ccc1Nc1ncc(C(F)(F)F)c(CCc2cccc(C(N)=O)c2)n1` [Compound 5, 3-(2-(2-((2-Methoxy-4-(piperidin-4-yl)phenyl)amino)-5-(trifluoromethyl)pyrimidin-4-yl)ethyl)benzamide], the IC50 in assay [6] turned out to be 5750 nM; in the assay with MDA-231-LNA cells, 3060 nM; in assay [5], 7.2 nM.
